# Test results published in ChEMBL document CHEMBL4052642, “4-Methyl-6,7-dihydro-4H-triazolo[4,5-c]pyridine-Based P2X7 Receptor Antagonists: Optimization of Pharmacokinetic Properties Leading to the Identification of a Clinical Candidate” (J Med Chem, 2017).
# Key:
# [1] = Volume of distribution at steady state in beagle dog at 1 mg/kg, iv or 3 mg/kg, po by LC-MS/MS analysis; assay type: ADME, organism-based, Canis lupus familiaris; conditions: in vivo, read-out: Vdss
# [2] = Protein binding in rat plasma at 1 uM after 6 hrs by equilibrium dialysis method; assay type: ADME, cell-free; conditions: read-out: PPB (converted)
# [3] = Clearance in beagle dog at 1 mg/kg, iv or 3 mg/kg, po by LC-MS/MS analysis; assay type: ADME, organism-based, Canis lupus familiaris; conditions: in vivo
# Cytochrome P450 2C19 = Cytochrome P450 2C19 (Homo sapiens, UniProt P33261); test: Inhibition of CYP2C19 in human liver microsomes using S-mephenytoin as substrate after 15 mins by LC-MS/MS analysis; assay type: ADME
# Cytochrome P450 2C19, sequence (P33261 whole entry): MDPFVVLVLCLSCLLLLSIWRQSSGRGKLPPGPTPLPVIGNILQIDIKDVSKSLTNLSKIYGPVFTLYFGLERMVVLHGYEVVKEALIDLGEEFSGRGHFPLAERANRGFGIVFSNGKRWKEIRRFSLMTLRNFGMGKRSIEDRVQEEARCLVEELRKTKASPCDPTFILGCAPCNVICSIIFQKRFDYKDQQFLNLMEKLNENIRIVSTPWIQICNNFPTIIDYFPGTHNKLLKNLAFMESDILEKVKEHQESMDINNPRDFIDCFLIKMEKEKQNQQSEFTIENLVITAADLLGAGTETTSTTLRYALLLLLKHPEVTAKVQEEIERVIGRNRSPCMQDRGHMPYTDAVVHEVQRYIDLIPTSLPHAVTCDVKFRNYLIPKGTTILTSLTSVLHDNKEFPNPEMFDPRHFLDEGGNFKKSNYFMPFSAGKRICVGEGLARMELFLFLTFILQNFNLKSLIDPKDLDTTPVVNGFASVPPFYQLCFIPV
# Cytochrome P450 2C9 = Cytochrome P450 2C9 (Homo sapiens, UniProt P11712); test: Inhibition of CYP2C9 in human liver microsomes using diclofenac as substrate after 15 mins by LC-MS/MS analysis; assay type: ADME
# Cytochrome P450 2C9, sequence (P11712 whole entry): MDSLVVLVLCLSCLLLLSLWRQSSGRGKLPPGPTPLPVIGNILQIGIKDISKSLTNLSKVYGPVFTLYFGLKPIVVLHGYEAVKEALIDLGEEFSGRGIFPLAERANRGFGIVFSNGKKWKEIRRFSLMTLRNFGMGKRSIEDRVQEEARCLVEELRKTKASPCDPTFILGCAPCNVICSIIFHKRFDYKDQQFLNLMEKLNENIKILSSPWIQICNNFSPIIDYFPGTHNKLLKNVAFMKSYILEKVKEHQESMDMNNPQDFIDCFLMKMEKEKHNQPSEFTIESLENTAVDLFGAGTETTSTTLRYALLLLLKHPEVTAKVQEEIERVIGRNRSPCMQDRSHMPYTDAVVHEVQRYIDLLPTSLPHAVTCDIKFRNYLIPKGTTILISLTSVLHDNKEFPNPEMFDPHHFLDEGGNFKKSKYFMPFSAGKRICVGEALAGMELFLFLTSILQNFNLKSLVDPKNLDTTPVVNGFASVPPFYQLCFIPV
# Cytochrome P450 2D6 = Cytochrome P450 2D6 (Homo sapiens, UniProt P10635); test: Inhibition of CYP2D6 in human liver microsomes using dextromethorphan as substrate after 15 mins by LC-MS/MS analysis; assay type: ADME
# Cytochrome P450 2D6, sequence (P10635 whole entry): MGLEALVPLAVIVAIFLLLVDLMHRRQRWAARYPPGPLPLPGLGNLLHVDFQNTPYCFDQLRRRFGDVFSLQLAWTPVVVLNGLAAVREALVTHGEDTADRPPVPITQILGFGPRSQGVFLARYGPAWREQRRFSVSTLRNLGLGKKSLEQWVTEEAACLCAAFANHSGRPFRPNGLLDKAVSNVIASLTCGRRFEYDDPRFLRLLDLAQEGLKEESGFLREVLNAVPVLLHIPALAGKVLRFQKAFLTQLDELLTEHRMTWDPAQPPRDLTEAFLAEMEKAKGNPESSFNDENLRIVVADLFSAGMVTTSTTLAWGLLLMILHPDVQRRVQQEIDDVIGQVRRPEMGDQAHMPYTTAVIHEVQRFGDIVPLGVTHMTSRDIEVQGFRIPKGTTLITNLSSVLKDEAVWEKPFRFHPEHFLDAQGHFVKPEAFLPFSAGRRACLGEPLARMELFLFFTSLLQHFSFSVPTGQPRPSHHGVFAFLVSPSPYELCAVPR
# [4] = Volume of distribution at steady state in Sprague-Dawley rat at 1 mg/kg, iv or 5 mg/kg, po by LC-MS/MS analysis; assay type: ADME, organism-based; conditions: in vivo, read-out: Vdss
# Cytochrome P450 1A2 = target: T1, Cytochrome P450 1A2 (Homo sapiens, UniProt P05177); test: Inhibition of CYP1A2 in human liver microsomes using phenacetin as substrate after 15 mins by LC-MS/MS analysis; assay type: ADME
# T1 sequence (P05177 whole entry): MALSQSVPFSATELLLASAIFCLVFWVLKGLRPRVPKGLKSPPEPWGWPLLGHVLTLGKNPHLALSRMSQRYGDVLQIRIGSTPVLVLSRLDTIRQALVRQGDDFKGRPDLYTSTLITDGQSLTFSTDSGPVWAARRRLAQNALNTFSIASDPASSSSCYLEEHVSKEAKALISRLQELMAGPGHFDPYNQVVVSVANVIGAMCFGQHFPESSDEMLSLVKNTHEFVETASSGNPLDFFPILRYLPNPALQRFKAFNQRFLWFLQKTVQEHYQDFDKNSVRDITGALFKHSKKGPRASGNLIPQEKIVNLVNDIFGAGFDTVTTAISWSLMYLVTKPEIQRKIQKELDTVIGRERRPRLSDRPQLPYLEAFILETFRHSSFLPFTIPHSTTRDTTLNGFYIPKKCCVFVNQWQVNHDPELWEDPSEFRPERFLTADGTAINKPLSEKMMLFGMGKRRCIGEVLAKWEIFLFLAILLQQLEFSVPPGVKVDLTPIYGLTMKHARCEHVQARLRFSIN
# Cytochrome P450 3A4 = Cytochrome P450 3A4 (Homo sapiens, UniProt P08684); test: Inhibition of CYP3A4 in human liver microsomes using midazolam as substrate after 15 mins by LC-MS/MS analysis; assay type: ADME
# Cytochrome P450 3A4, sequence (P08684 whole entry): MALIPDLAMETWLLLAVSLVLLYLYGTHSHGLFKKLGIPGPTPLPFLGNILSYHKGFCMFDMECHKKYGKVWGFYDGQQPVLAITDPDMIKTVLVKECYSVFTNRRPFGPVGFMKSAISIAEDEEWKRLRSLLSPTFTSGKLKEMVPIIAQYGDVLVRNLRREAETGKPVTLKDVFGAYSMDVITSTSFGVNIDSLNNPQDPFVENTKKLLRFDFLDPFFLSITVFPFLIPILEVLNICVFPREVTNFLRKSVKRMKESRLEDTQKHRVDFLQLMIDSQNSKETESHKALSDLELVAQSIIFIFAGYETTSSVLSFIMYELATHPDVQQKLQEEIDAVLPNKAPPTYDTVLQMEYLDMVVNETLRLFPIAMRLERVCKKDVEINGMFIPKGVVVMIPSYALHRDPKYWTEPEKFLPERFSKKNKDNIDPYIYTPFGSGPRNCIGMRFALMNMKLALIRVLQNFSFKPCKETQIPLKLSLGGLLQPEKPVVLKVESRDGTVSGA
# [5] = Clearance in Sprague-Dawley rat at 1 mg/kg, iv or 5 mg/kg, po by LC-MS/MS analysis; assay type: ADME, organism-based; conditions: in vivo
# [6] = Solubility of compound in phosphate buffer at pH 2 after 3 days; assay type: physicochemical
# [7] = Oral bioavailability in beagle dog at 3 mg/kg by LC-MS/MS analysis; assay type: ADME, organism-based, Canis lupus familiaris; conditions: in vivo
# [8] = Half life in beagle dog at 1 mg/kg, iv by LC-MS/MS analysis; assay type: ADME, organism-based, Canis lupus familiaris; conditions: in vivo
# Rattus norvegicus [9] = test: Inhibition of Bz-ATP-induced IL-1beta release in sc dosed Sprague-Dawley rat hippocampus preincubated for 1 hr followed by Bz-ATP challenge measured after 2 hrs by microdialysis method; assay type: functional, organism-based
# Rattus norvegicus [10] = test: Ex vivo receptor occupancy at P2X7 in sc dosed Sprague-Dawley rat brain after 60 mins by autoradiography; assay type: functional
# Cytochrome P450 2C8 = target: T2, Cytochrome P450 2C8 (Homo sapiens, UniProt P10632); test: Inhibition of CYP2C8 in human liver microsomes using paclitaxel as substrate after 15 mins by LC-MS/MS analysis; assay type: ADME
# T2 sequence (P10632 whole entry): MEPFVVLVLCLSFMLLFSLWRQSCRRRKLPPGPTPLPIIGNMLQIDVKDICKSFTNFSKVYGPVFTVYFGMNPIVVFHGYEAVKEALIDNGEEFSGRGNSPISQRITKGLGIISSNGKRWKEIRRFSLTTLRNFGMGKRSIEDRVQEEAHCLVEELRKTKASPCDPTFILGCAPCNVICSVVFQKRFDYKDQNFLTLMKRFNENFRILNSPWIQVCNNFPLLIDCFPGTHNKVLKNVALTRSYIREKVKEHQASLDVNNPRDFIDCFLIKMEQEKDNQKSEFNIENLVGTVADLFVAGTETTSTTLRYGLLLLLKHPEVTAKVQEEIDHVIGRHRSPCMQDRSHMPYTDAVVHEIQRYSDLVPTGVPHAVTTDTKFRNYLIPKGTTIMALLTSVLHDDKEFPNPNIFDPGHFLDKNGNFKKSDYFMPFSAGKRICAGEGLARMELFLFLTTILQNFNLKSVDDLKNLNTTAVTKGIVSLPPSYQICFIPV
# [11] = Oral bioavailability in Sprague-Dawley rat at 5 mg/kg by LC-MS/MS analysis; assay type: ADME, organism-based; conditions: in vivo
# [12] = Protein binding in mouse plasma at 1 uM after 6 hrs by equilibrium dialysis method; assay type: ADME, cell-free; conditions: read-out: PPB (converted)
# [13] = Half life in Sprague-Dawley rat at 1 mg/kg, iv by LC-MS/MS analysis; assay type: ADME, organism-based; conditions: in vivo
# [14] = target: Voltage-gated inwardly rectifying potassium channel KCNH2 (Homo sapiens, UniProt Q12809); test: Inhibition of [3H]-dofetilide binding to human ERG expressed in HEK293 cells; assay type: cell-based
# Voltage-gated inwardly rectifying potassium channel KCNH2, sequence (Q12809 whole entry): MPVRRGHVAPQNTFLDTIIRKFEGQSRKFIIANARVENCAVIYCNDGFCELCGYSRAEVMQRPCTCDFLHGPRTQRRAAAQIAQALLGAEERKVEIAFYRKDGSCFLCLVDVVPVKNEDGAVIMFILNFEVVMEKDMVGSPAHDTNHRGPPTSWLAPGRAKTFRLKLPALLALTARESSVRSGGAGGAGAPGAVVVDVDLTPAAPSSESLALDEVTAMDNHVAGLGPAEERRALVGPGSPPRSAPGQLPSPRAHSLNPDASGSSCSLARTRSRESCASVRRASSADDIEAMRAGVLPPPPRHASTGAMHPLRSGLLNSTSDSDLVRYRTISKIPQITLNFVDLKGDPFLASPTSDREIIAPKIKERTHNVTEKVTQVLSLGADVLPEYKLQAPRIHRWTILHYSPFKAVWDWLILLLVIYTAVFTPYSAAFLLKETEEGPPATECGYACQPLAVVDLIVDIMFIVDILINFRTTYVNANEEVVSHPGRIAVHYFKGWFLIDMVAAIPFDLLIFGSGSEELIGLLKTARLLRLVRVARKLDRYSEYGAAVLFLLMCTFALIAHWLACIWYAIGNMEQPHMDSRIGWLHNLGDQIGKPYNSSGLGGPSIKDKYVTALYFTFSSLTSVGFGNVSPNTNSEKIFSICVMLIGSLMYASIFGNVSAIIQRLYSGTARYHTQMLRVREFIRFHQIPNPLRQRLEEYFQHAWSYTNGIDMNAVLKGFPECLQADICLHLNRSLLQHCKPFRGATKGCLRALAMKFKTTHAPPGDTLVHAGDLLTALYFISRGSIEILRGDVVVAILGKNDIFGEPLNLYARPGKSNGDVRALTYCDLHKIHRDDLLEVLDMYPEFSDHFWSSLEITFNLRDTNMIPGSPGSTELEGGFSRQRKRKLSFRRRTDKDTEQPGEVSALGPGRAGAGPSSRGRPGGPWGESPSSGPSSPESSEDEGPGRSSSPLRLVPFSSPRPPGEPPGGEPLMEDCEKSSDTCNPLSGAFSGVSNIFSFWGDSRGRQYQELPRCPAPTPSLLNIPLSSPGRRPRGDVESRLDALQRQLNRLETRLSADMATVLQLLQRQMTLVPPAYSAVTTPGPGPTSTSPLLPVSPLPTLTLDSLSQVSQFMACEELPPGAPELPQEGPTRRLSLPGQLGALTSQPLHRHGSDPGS
# [15] = Protein binding in human plasma at 1 uM after 6 hrs by equilibrium dialysis method; assay type: ADME, cell-free; conditions: read-out: PPB (converted)
# [16] = Protein binding in rat brain at 5 uM after 5 hrs by equilibrium dialysis method; assay type: ADME, tissue-based; conditions: read-out: PB (converted)
# [17] = Solubility of compound in phosphate buffer at pH 7 after 3 days; assay type: physicochemical
# Rattus norvegicus [18] = test: Drug level in Sprague-Dawley rat treated with(R)-(2-Chloro-3-(trifluoromethyl)phenyl)(4-methyl-1-(pyrimidin-2-yl)-1,4,6,7-tetrahydro-5H-[1,2,3]triazolo[4,5-c]pyridin-5-yl)methanone at 1 mg/kg, iv or 5 mg/kg, po by LC-MS/MS analysis; assay type: ADME, organism-based; conditions: in vivo
# P2X purinoceptor 7 = P2X purinoceptor 7 (Homo sapiens, UniProt Q99572); test: Antagonist activity at human P2X7
# P2X purinoceptor 7, sequence (Q99572 whole entry): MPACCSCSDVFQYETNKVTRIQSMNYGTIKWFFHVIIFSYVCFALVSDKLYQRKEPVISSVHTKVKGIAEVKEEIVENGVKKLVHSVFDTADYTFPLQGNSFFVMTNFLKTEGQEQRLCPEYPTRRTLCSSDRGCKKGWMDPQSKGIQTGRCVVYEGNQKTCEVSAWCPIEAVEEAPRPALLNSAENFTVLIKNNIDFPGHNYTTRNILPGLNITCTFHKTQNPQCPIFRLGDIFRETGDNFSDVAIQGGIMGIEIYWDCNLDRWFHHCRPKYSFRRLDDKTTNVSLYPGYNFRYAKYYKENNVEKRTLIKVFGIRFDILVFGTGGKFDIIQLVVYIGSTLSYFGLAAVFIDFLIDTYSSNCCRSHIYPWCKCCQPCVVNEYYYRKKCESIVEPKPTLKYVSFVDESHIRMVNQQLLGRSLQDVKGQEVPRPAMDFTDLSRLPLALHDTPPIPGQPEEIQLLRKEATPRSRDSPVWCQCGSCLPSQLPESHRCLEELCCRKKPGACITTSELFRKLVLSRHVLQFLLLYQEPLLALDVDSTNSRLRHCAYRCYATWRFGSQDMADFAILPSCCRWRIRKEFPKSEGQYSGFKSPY
structure (smiles),measurement,setting,value
C[C@@H]1c2nnn(-c3cnccn3)c2CCN1C(=O)c1cccc(C(F)(F)F)c1Cl,Vd,[1],3.3 L/kg
same,"fraction unbound at 6 h, 1 µM",[2],0.063
same,clearance,[3],1.98 L/h/kg
same,IC50,Cytochrome P450 2C19,4.3 µM
same,IC50,Cytochrome P450 2C9,> 10 µM
same,IC50,Cytochrome P450 2D6,> 10 µM
same,Vd,[4],3 L/kg
same,IC50,Cytochrome P450 1A2,> 10 µM
same,IC50,Cytochrome P450 3A4,2.3 µM
same,clearance,[5],2.76 L/h/kg
same,solubility at 72 h,[6],48.2 µM
same,bioavailability,[7],65%
same,half-life,[8],2.4 h
same,inhibition,Rattus norvegicus [9],Dose-dependent effect
same,Occ,Rattus norvegicus [10],Dose-dependent effect
same,ED50,Rattus norvegicus [10]; 1 h,0.3 mg/kg
same,IC50,Cytochrome P450 2C8,> 10 µM
same,bioavailability,[11],77%
same,"fraction unbound at 6 h, 1 µM",[12],0.053
same,half-life,[13],1.5 h
same,IC50,[14],> 10 µM
same,"fraction unbound at 6 h, 1 µM",[15],0.084
same,"fraction unbound at 5 h, 5 µM",[16],0.05
same,solubility at 72 h,[17],94.4 µM
C[C@@H]1c2nn[nH]c2CCN1C(=O)c1cccc(C(F)(F)F)c1Cl,Drug metabolism,Rattus norvegicus [18],Metabolite_Detected
O=C(NCC12CC3CC(CC(C3)C1)C2)c1cc(CCCNCCCO)ccc1Cl [AZD9056],IC50,P2X purinoceptor 7,0.01 to 0.013 µM
